Experimental data published in patent publication US20240368181A1, “QUINOXALINE DERIVATIVES AND USES THEREOF” (Black Diamond Therapeutics, Inc., priority 2021, published 2024).

Assays:
Format in all cases: cell-based
[1] = test system: SNU-16 (FGFR2-amplification) cells; test: cell proliferation assay (CellTiterGlo), SNU-16 cells; conditions: Homo sapiens, 72 hours
Source text: (§1) In some embodiments, the biological assay assess the ability of the compounds to inhibit cell proliferation.
(§2) In some embodiments, cells (e.g., SNU-16 (FGFR2-amplification) cells) may be suspended and dispensed in plates. In some embodiments, cells (e.g., UM-UC-14 (FGFR3-S249C) cells) may be suspended and dispensed in plates. In some embodiments, cells (e.g., DMS-114 (FGFR1 overexpression) cells) may by suspended and dispensed in plates. In some embodiments, cells (e.g., RT-112 (FGFR3-Tacc3 fusion) cells) may be suspended and dispensed in plates. In some embodiments, to determine the effect of the compounds of the present disclosure on cell proliferation, cells (e.g., SNU-16, UM-UC-14, DMS-114 and […] cells) may be incubated in the presence of vehicle control (e.g., DMSO) or a compound of the present disclosure at varying concentrations and the inhibition of cell growth may be determined by luminescent quantification (e.g., of intracellular ATP content using CellTiterGlo), according to the manufacturers protocol. In some embodiments, to determine the IC50 values, the vehicle-treated cells were normalized as viable cells and the growth was analyzed using a software (e.g., the CDD Vault software (Collaborative Drug Discovery, Burlingame, CA)).

[2] = test system: UM-UC-14 (FGFR3-S249C) cells; test: cell proliferation assay (CellTiterGlo), UM-UC-14 cells; conditions: UMUC14, 72 h
Source text: as §1, §2

[3] = test system: DMS-114 (FGFR1 overexpression) cells; test: cell proliferation assay (CellTiterGlo), DMS-114 cells; conditions: Homo sapiens, DMS-114, 72 h
Source text: as §1, §2

[4] = test system: RT-112 (FGFR3-Tacc3 fusion) cells; test: cell proliferation assay (CellTiterGlo), RT-112 cells; conditions: Homo sapiens, RT-112, RT112 cells, 72 hours
Source text: as §1, §2

| IC50 [1] [nM] | Compound | IC50 [2] [nM] | IC50 [3] [nM] | IC50 [4] [nM] |
| --- | --- | --- | --- | --- |
| 100 to 400 | Cc1nc2ccc(Oc3ccc4ncc(-c5cnn(CC6CC(F)(F)C6)c5)nc4c3-n3ccnc3)cc2[nH]1 [Compound 69] | 100 to 400 | ≥ 400 | 100 to 400 |
| < 20 | Cc1nc2ccc(Oc3ccc4ncc(-c5cnn(CC6(O)CC6)c5)nc4c3C3=CC(C)(C)OC3)c(F)c2[nH]1 [Compound 73] | < 20 | 20 to 100 | < 20 |
| ≥ 400 | Cc1nc2ccc(Oc3ccc4ncc(-c5cnn(CC6(O)CC6)c5)nc4c3N3CCOC3=O)c(F)c2[nH]1 [Compound 74] | ≥ 400 | ≥ 400 | ≥ 400 |
| 20 to 100 | Cc1nc2ccc(Oc3ccc4ncc(-c5cnn(CC6(O)CC6)c5)nc4c3N3CCOCC3)cc2[nH]1 [Compound 75] | 100 to 400 | ≥ 400 | 100 to 400 |
| < 20 | Cc1nc2ccc(Oc3ccc4ncc(-c5cnn(CC6CC(F)(F)C6)c5)nc4c3C3=CC(C)(C)OC3)cc2[nH]1 [Compound 76] | < 20 | 100 to 400 | < 20 |
| < 20 | Cc1nc2ccc(Oc3ccc4ncc(-c5cnn(CC6(O)CC6)c5)nc4c3C3=CCOC3)c(F)c2[nH]1 [Compound 77] | 20 to 100 | 20 to 100 | < 20 |
| 100 to 400 | CC(=O)N1CC=C(c2c(Oc3ccc4nc(C)[nH]c4c3)ccc3ncc(-c4cnn(CC5CC(F)(F)C5)c4)nc23)C1 [Compound 78] | 100 to 400 | ≥ 400 | 100 to 400 |
| 20 to 100 | CN=S1(=O)CCC(n2cc(-c3cnc4ccc(Oc5ccc6nc(C)[nH]c6c5)c(Cl)c4n3)cn2)CC1 (stereo not drawn) [Compound 80] | 20 to 100 | ≥ 400 | 20 to 100 |
| < 20 | Cc1nc2ccc(Oc3ccc4ncc(-c5cnn(CC6CC(F)(F)C6)c5)nc4c3-c3ccoc3)c(F)c2[nH]1 [Compound 81] | < 20 | 100 to 400 | < 20 |
| < 20 | Cc1nc2ccc(Oc3ccc4ncc(-c5cnn(C6CCN(S(C)(=N)=O)CC6)c5)nc4c3Cl)cc2[nH]1 (stereo not drawn) [Compound 82] | 20 to 100 | 100 to 400 | 20 to 100 |
| 100 to 400 | Cc1nc2ccc(Oc3ccc4ncc(-c5cnn(CC6CC(F)(F)C6)c5)nc4c3C3=CCNC3)cc2[nH]1 [Compound 83] | 20 to 100 | ≥ 400 | 100 to 400 |
| 100 to 400 | Cc1nc2ccc(Oc3ccc4ncc(-c5cnn(CC6CC(F)(F)C6)c5)nc4c3C3=CCN(C(=O)OC(C)(C)C)C3)cc2[nH]1 [Compound 84] | ≥ 400 | ≥ 400 | 100 to 400 |
| 20 to 100 | Cc1nc2ccc(Oc3ccc4ncc(-c5cnn(C6CCS(=N)(=O)CC6)c5)nc4c3Cl)cc2[nH]1 (stereo not drawn) [Compound 85] | 100 to 400 | ≥ 400 | 20 to 100 |
| < 20 | CN=S(C)(=O)N1CCC(n2cc(-c3cnc4ccc(Oc5ccc6nc(C)[nH]c6c5)c(Cl)c4n3)cn2)CC1 (stereo not drawn) [Compound 86] | < 20 | 100 to 400 | < 20 |
| ≥ 400 | Cc1nc2ccc(Oc3ccc4ncc(-c5cnn(CC6CC(F)(F)C6)c5)nc4c3C3CCCOC3)cc2[nH]1 (stereo not drawn) [Compound 87] | ≥ 400 | ≥ 400 | ≥ 400 |
| 20 to 100 | Cc1nc2ccc(Oc3ccc4ncc(-c5cnn(CC6CC(F)(F)C6)c5)nc4c3C3=CC(C)(C)OC3(C)C)c(F)c2[nH]1 [Compound 88] | 20 to 100 | 100 to 400 | 20 to 100 |
| < 20 | Cc1nc2ccc(Oc3ccc4ncc(-c5cnn(CC6CC(F)(F)C6)c5)nc4c3C3=CCOC3)c(F)c2[nH]1 [Compound 89] | 20 to 100 | 100 to 400 | 20 to 100 |
| 20 to 100 | Cc1nc2ccc(Oc3ccc4ncc(-c5cnn(CC6CC(F)(F)C6)c5)nc4c3C3=CC(C)(C)OC3(C)C)cc2[nH]1 [Compound 90] | 20 to 100 | 100 to 400 | 20 to 100 |

| IC50 [1] [nM] | Compound | IC50 [2] [nM] | IC50 [3] [nM] | IC50 [4] [nM] |
| --- | --- | --- | --- | --- |
| 20 to 100 | Cc1nc2ccc(Oc3ccc4ncc(-c5cnn(CC6CC(F)(F)C6)c5)nc4c3C3=CCCOC3)cc2[nH]1 [Compound 91] | 20 to 100 | ≥ 400 | 20 to 100 |
| 100 to 400 | Cc1nc2ccc(Oc3ccc4ncc(-c5cnn(CCC(F)F)c5)nc4c3Cl)cc2[nH]1 [Compound 92] | 100 to 400 | ≥ 400 | 100 to 400 |
| 100 to 400 | Cc1nc2ccc(Oc3ccc4ncc(-c5cnn(CC6(N)CC6)c5)nc4c3Cl)cc2[nH]1 [Compound 93] | 20 to 100 | ≥ 400 | 100 to 400 |
| ≥ 400 | Cc1nc2ccc(Oc3ccc4ncc(-c5cnn(CC6CC(F)(F)C6)c5)nc4c3C3CCOCC3)cc2[nH]1 [Compound 94] | ≥ 400 | ≥ 400 | ≥ 400 |
| 20 to 100 | Cc1nc2ccc(Oc3ccc4ncc(-c5cnn(CC6CC(F)(F)C6)c5)nc4c3-n3ccnc3)c(F)c2[nH]1 [Compound 96] |  | 100 to 400 | 20 to 100 |
| 20 to 100 | Cc1nc2ccc(Oc3ccc4ncc(-c5cnn(C[C@@H](C)O)c5)nc4c3Cl)cc2[nH]1 [Compound 132] |  |  | 20 to 100 |
| ≥ 400 | Cc1nc2ccc(Oc3ccc4ncc(-c5cnn(CC6CC(F)(F)C6)c5)nc4c3-n3c(C)ccc3C)cc2[nH]1 [Compound 133] |  |  | 100 to 400 |
| 20 to 100 | Cc1nc2ccc(Oc3ccc4ncc(-c5cnn(CC6CC(F)(F)C6)c5)nc4c3C3CCOC3)cc2[nH]1 (stereo not drawn) [Compound 134] |  |  | 20 to 100 |
| < 20 | Cc1nc2ccc(Oc3ccc4ncc(-c5cnn(C6CCN(C)C7(CC7)C6)c5)nc4c3Cl)c(F)c2[nH]1 (stereo not drawn) [Compound 135] |  |  | < 20 |
| 100 to 400 | Cc1nc2ccc(Oc3ccc4ncc(-c5cnn(CC6CC(F)(F)C6)c5)nc4c3Cl)c(Cl)c2[nH]1 [Compound 136] |  |  | 100 to 400 |
| 100 to 400 | Cc1nc2ccc(Oc3ccc4ncc(-c5cnn(CC6(O)CC6)c5)nc4c3F)c(Cl)c2[nH]1 [Compound 137] |  |  | 100 to 400 |
| ≥ 400 | Cc1nc2ccc(Oc3ccc4ncc(-c5cnn(CC6(O)COC6)c5)nc4c3Cl)c(F)c2[nH]1 [Compound 138] |  |  | ≥ 400 |
| 20 to 100 | Cc1nc2ccc(Oc3ccc4ncc(-c5cnn([C@H]6C[C@H](C(F)(F)F)C6)c5)nc4c3Cl)cc2[nH]1 [Compound 178] | ≥ 400 | ≥ 400 |  |
| 20 to 100 | Cc1nc2ccc(Oc3ccc4ncc(-c5cnn(C[C@H]6C[C@@](C)(O)C6)c5)nc4c3Cl)cc2[nH]1 [Compound 180] | 20 to 100 | ≥ 400 |  |
| < 20 | Cc1nc2ccc(Oc3ccc4ncc(-c5cnn(C[C@H]6C[C@](C)(O)C6)c5)nc4c3Cl)cc2[nH]1 [Compound 181] | 20 to 100 | ≥ 400 |  |
| 20 to 100 | Cc1nc2ccc(Oc3ccc4ncc(-c5cnn(C(C)C6CC(F)(F)C6)c5)nc4c3Cl)cc2[nH]1 (stereo not drawn) [Compound 182] | 20 to 100 | ≥ 400 |  |
| < 20 | Cc1nc2ccc(Oc3ccc4ncc(-c5cnn(C6CCN(C(=O)N(C)C)CC6)c5)nc4c3Cl)cc2[nH]1 [Compound 261] | < 20 | 20 to 100 |  |
